Values after ≈ are worked out from the molar mass of the structure shown. Active and inactive are the calls of the source. The calls are words filed in the database; no cut-off is given here.
Assays:
[1] = Inhibition of bacterial IMP-1 using CDC-1 as substrate incubated for 30 mins; set-up: species or system Bacteria
[2] = Inhibition of bacterial NDM-1 using CDC-1 as substrate incubated for 30 mins; set-up: species or system Bacteria
[3] = Inhibition of bacterial VIM-27 using CDC-1 as substrate incubated for 30 mins; set-up: species or system Bacteria
Escherichia coli [4] = assay: Antibacterial activity against Escherichia coli expressing NDM-1 measured by broth microdilution method; assay type: functional
HEK293 [5] = assay: Cytotoxicity against human HEK293 cells at 1 to 100 uM and measured by MTT assay; assay type: toxicity, cell-based; conditions: hek293, 100 µM, dose 1-100 µM
HEK293 [6] = assay: Cytotoxicity against human HEK293 cells at 50 uM and measured by propidium iodide (PI) staining method; assay type: toxicity, cell-based; conditions: hek293, 50 µM
HEK293 [7] = assay: Cytotoxicity against human HEK293 cells at 50 uM and measured by Calcien AM staining method; assay type: toxicity, cell-based; conditions: hek293, 50 µM
[8] = Inhibition of bacterial NDM-3 using CDC-1 as substrate incubated for 30 mins; set-up: species or system Bacteria
Bacteria = assay: Reversible inhibition of bacterial NDM-1 at 10 uM incubated for 30 mins
[9] = Inhibition of bacterial NDM-13 using CDC-1 as substrate incubated for 30 mins; set-up: species or system Bacteria
Escherichia coli [10] = assay: Potentiation of meropenem-induced antibacterial activity against Escherichia coli expressing NDM-1 at 0.25 ug/ml assessed as meropenem MIC by broth microdilution method; assay type: functional; conditions: dose 0.25 µg/ml
[11] = Inhibition of bacterial NDM-4 using CDC-1 as substrate incubated for 30 mins; set-up: species or system Bacteria
[12] = Inhibition of bacterial NDM-12 using CDC-1 as substrate incubated for 30 mins; set-up: species or system Bacteria
Escherichia coli [13] = assay: Potentiation of meropenem-induced antibacterial activity against Escherichia coli expressing NDM-1 at 8 ug/ml assessed as meropenem MIC by broth microdilution method; assay type: functional; conditions: dose 8 µg/ml
[14] = Competitive inhibition of bacterial NDM-1 using CDC-1 as substrate and measured by Dixon plot analysis; set-up: species or system Bacteria

Structure (SMILES)	IC50 [1]	IC50 [2]	IC50 [3]	other results
CO[C@H]1C(=O)N2C(C(=O)O)=C(CSc3nnc(C)s3)CS[C@H]12	16 µM	0.55 µM	13 µM	
CO[C@H]1C(=O)N2C(C(=O)O)=C(CSC(=O)c3ccccc3)C[S+]([O-])[C@H]12 (stereo not given in full)		0.25 µM		
CO[C@H]1C(=O)N2C(C(=O)O)=C(CSc3nnnn3C)CS[C@H]12	20 µM	0.63 µM	5.5 µM	
CO[C@@]1(NC(=O)Cc2ccccc2)C(=O)N2C(C(=O)O)=C(CSC(=O)c3ccccc3)CS[C@@H]21		9.6 µM		
O=C(Cc1ccccc1)N[C@H]1C(=O)N2C(C(=O)O)=C(CSC(=O)c3ccccc3)CS[C@H]12		0.22 µM		
C[C@@H](O)[C@H]1C(=O)N2C(C(=O)O)=C(S[C@@H]3CN[C@H](C(=O)N(C)C)C3)[C@H](C)[C@H]12 [MEROPENEM]				MIC (Escherichia coli [4]): 0.031 µg/mL (≈ 0.0808 µM)
CO[C@H]1C(=O)N2C(C(=O)O)=C(CSc3ccccc3)CS[C@H]12	7.4 µM	2 µM	8.1 µM	
O=C(O)C1=C(CSc2nc3ccccc3s2)CS[C@@H]2CC(=O)N12		> 50 µM		
CO[C@H]1C(=O)N2C(C(=O)O)=C(CSc3nc4ccc([N+](=O)[O-])cc4s3)CS[C@H]12	15 µM	0.76 µM	1 µM	
O=C(O)CN(CCN(CC(=O)O)CC(=O)O)CC(=O)O [EDETIC ACID]		0.54 µM		
CO[C@H]1C(=O)N2C(C(=O)O)=C(C)CS[C@H]12		> 50 µM		
CO[C@H]1C(=O)N2C(C(=O)O)=C(C[Se]c3ccccc3)CS[C@H]12	6.6 µM	0.19 µM	6 µM	
CO[C@H]1C(=O)N2C(C(=O)O)=C(CSc3nc4ccccc4s3)CS[C@H]12	8 µM	0.13 µM	6 µM	Activity (HEK293 [5]): Non-Toxic; Activity (HEK293 [6]): Non-Toxic; Activity (HEK293 [7]): Non-Toxic; IC50 [8]: 0.19 µM; inhibition (Bacteria): Active; IC50 [9]: 0.16 µM; MIC (Escherichia coli [10]): 32 µg/mL; IC50 [11]: 0.21 µM; IC50 [12]: 0.2 µM; MIC (Escherichia coli [13]): 16 µg/mL; Ki [14]: 0.21 µM

Now from value to compound, other results behind:

IC50 [1]	IC50 [2]	IC50 [3]	Structure (SMILES)	other results
	0.46 µM		O=C(O)C1=C(CSC(=O)c2ccccc2)CS[C@@H]2[C@@H](O)C(=O)N12	
8.8 µM	0.63 µM	8.6 µM	CO[C@H]1C(=O)N2C(C(=O)O)=C(CSc3ncccn3)CS[C@H]12	
	1.4 µM		CC(C)O[C@H]1C(=O)N2C(C(=O)O)=C(CSC(=O)c3ccccc3)CS[C@H]12	
	0.99 µM		CO[C@H]1C(=O)N2C(C(=O)O)=C(COC(C)=O)CS[C@H]12	
	1.2 µM		CCSCC1=C(C(=O)O)N2C(=O)[C@H](OC)[C@H]2SC1	
	> 50 µM		CO[C@H]1C(=O)N2C(C(=O)O)=C(CSC(=O)c3ccccc3)CS(=O)(=O)[C@H]12	
	> 50 µM		O=C(O)C1=C(CSC(=O)c2ccccc2)CS[C@@H]2CC(=O)N12	
4.6 µM	7.4 µM	3.6 µM	CCO[C@H]1C(=O)N2C(C(=O)O)=C(CSC(=O)c3ccccc3)CS[C@H]12	
5.5 µM	0.5 µM	7.3 µM	CO[C@H]1C(=O)N2C(C(=O)O)=C(CSc3ccc(C(F)(F)F)cc3)CS[C@H]12	
	9.4 µM		O=C(Cc1ccccc1)N[C@@H]1C(=O)N2C(C(=O)O)=C(CSC(=O)c3ccccc3)CS[C@H]12	
15 µM	1.6 µM	8.1 µM	CO[C@H]1C(=O)N2C(C(=O)O)=C(CSc3nncs3)CS[C@H]12	
0.8 µM	0.31 µM	5.2 µM	CCS[C@H]1C(=O)N2C(C(=O)O)=C(CSC(=O)c3ccccc3)CS[C@H]12	
8.4 µM	0.2 µM	5.8 µM	CO[C@H]1C(=O)N2C(C(=O)O)=C(CSc3ccc(NC(C)=O)cc3)CS[C@H]12	
7.9 µM	> 50 µM	9.1 µM	CO[C@H]1C(=O)N2C(C(=O)O)=C(CSC(=O)c3ccccc3)CS[C@H]12	
	0.62 µM		CCOC(=O)CSCC1=C(C(=O)O)N2C(=O)[C@H](OC)[C@H]2SC1	

— ChEMBL document CHEMBL5154736, “Stereochemically altered cephalosporins as potent inhibitors of New Delhi metallo-β-lactamases” (Eur J Med Chem, 2022)
